# Laboratory results: ChEMBL document CHEMBL1201862, “PubChem BioAssay data set” (2004)
#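 Briefly, cells in 96-well plates were exposed to five compound concentrations for 48 h, and endpoints were estimated by linear interpolation. Here, GI50 denotes the concentration required for 50% inhibition of growth.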 Active and inactive are the calls of the source. Cut-off read from the data, not from the text of the source: active = GI50 up to about 1.1 µM and inactive = higher.
# Tests used:
# Test in all cases: inhibition of tumour cell growth, NCI panel, 48 h
# DLD-1 = tested on: DLD-1
# HOP-18 = tested on: HOP-18
# RXF 393 = tested on: RXF 393
# MOLT-4 = tested on: MOLT-4
# A498 = tested on: A498
# IGROV-1 = tested on: IGROV-1
# CCRF-CEM = tested on: CCRF-CEM
# SNB-78 = tested on: SNB-78
# NCI-H226 = tested on: NCI-H226
# M19-MEL = tested on: M19-MEL
# OVCAR-8 = tested on: OVCAR-8
# OVCAR-5 = tested on: OVCAR-5
# UACC-257 = tested on: UACC-257
# U-251 = tested on: U-251
# KM12 = tested on: KM12
# NCI-H23 = tested on: NCI-H23
# KM-20L2 = tested on: KM-20L2
# A549 = tested on: A549
# SN12C = tested on: SN12C
# OVCAR-3 = tested on: OVCAR-3
# NCI-H522 = tested on: NCI-H522
# HCC 2998 = tested on: HCC 2998
# UACC-62 = tested on: UACC-62
# COLO 205 = tested on: COLO 205
# HT-29 = tested on: HT-29
# SNB-19 = tested on: SNB-19
# Malme-3M = tested on: Malme-3M
# K562 = tested on: K562
# DMS-114 = tested on: DMS-114
# RPMI-8226 = tested on: RPMI-8226
# SW-620 = tested on: SW-620
# SK-MEL-28 = tested on: SK-MEL-28
# SF-539 = tested on: SF-539
# SK-MEL-5 = tested on: SK-MEL-5
# NCI-H460 = tested on: NCI-H460
# HOP-92 = tested on: HOP-92
# HOP-62 = tested on: HOP-62
# XF498 = tested on: XF498
# HCT-116 = tested on: HCT-116
# CAKI-1 = tested on: CAKI-1
# EKVX = tested on: EKVX
# SK-MEL-2 = tested on: SK-MEL-2
# HCT-15 = tested on: HCT-15
# UO-31 = tested on: UO-31
# OVCAR-4 = tested on: OVCAR-4
# SF-295 = tested on: SF-295
# HL-60 = tested on: HL-60
# MCF7 = tested on: MCF7
# LOX IMVI = tested on: LOX IMVI
# SNB-75 = tested on: SNB-75
# SK-OV-3 = tested on: SK-OV-3
# NCI/ADR-RES = tested on: NCI/ADR-RES
# SF-268 = tested on: SF-268
# DMS-273 = tested on: DMS-273
# 786-0 = tested on: 786-0
# TK-10 = tested on: TK-10
# M14 = tested on: M14
# ACHN = tested on: ACHN
# SR = tested on: SR
# LXFL 529 = tested on: LXFL 529
structure (smiles),measurement,setting,value
COc1ccc(C2COc3cc(OC(C)=O)c(OC(C)=O)cc3C2)cc1 (stereo not drawn),GI50,DLD-1,20.5 µM (inactive)
same,GI50,HOP-18,2.78 µM (inactive)
same,GI50,RXF 393,15.5 µM (inactive)
same,GI50,MOLT-4,5.66 µM (inactive)
same,GI50,A498,4.54 µM (inactive)
same,GI50,IGROV-1,26.2 µM (inactive)
same,GI50,CCRF-CEM,3.09 µM (inactive)
same,GI50,SNB-78,26.1 µM (inactive)
same,GI50,NCI-H226,24.3 µM (inactive)
same,GI50,M19-MEL,14.2 µM (inactive)
same,GI50,OVCAR-8,18.8 µM (inactive)
same,GI50,OVCAR-5,27.1 µM (inactive)
same,GI50,UACC-257,23.6 µM (inactive)
same,GI50,U-251,6.49 µM (inactive)
same,GI50,KM12,11.4 µM (inactive)
same,GI50,NCI-H23,27.5 µM (inactive)
same,GI50,KM-20L2,31.4 µM (inactive)
same,GI50,A549,11.9 µM (inactive)
same,GI50,SN12C,17.5 µM (inactive)
same,GI50,OVCAR-3,19.6 µM (inactive)
same,GI50,NCI-H522,1.97 µM (inactive)
same,GI50,HCC 2998,23.2 µM (inactive)
same,GI50,UACC-62,19 µM (inactive)
same,GI50,COLO 205,20 µM (inactive)
same,GI50,HT-29,28.2 µM (inactive)
same,GI50,SNB-19,7.74 µM (inactive)
same,GI50,Malme-3M,23.2 µM (inactive)
same,GI50,K562,16.3 µM (inactive)
same,GI50,DMS-114,5.65 µM (inactive)
same,GI50,RPMI-8226,5.97 µM (inactive)
same,GI50,SW-620,14.3 µM (inactive)
same,GI50,SK-MEL-28,23.8 µM (inactive)
same,GI50,SF-539,19.9 µM (inactive)
same,GI50,SK-MEL-5,25.9 µM (inactive)
same,GI50,NCI-H460,13.9 µM (inactive)
same,GI50,HOP-92,9.08 µM (inactive)
same,GI50,HOP-62,31.6 µM (inactive)
same,GI50,XF498,8.49 µM (inactive)
same,GI50,HCT-116,20.4 µM (inactive)
same,GI50,CAKI-1,23 µM (inactive)
same,GI50,EKVX,27.2 µM (inactive)
same,GI50,SK-MEL-2,31.7 µM (inactive)
same,GI50,HCT-15,20.3 µM
same,GI50,UO-31,19.5 µM (inactive)
same,GI50,OVCAR-4,16.7 µM (inactive)
same,GI50,SF-295,14.1 µM (inactive)
same,GI50,HL-60,2.54 µM (inactive)
same,GI50,MCF7,29.4 µM (inactive)
same,GI50,LOX IMVI,16.5 µM (inactive)
same,GI50,SNB-75,7.76 µM (inactive)
same,GI50,SK-OV-3,40.1 µM (inactive)
same,GI50,NCI/ADR-RES,36.3 µM (inactive)
same,GI50,SF-268,12.3 µM (inactive)
same,GI50,DMS-273,17.9 µM (inactive)
COc1ccccc1C1C(Cl)C(=O)N1NC(=O)Cc1ccccc1 (stereo not drawn),GI50,HOP-18,30.7 µM (inactive)
same,GI50,RXF 393,53.1 µM (inactive)
same,GI50,MOLT-4,27.7 µM (inactive)
same,GI50,IGROV-1,> 100 µM (inactive)
same,GI50,CCRF-CEM,> 100 µM (inactive)
same,GI50,SNB-78,> 100 µM (inactive)
same,GI50,NCI-H226,48.5 µM (inactive)
same,GI50,M19-MEL,> 100 µM (inactive)
same,GI50,786-0,> 100 µM (inactive)
same,GI50,OVCAR-8,> 100 µM (inactive)
same,GI50,TK-10,> 100 µM (inactive)
same,GI50,OVCAR-5,> 100 µM (inactive)
same,GI50,UACC-257,> 100 µM (inactive)
same,GI50,U-251,> 100 µM (inactive)
same,GI50,KM12,> 100 µM (inactive)
same,GI50,NCI-H23,> 100 µM (inactive)
same,GI50,M14,> 100 µM (inactive)
same,GI50,KM-20L2,75.9 µM (inactive)
same,GI50,A549,> 100 µM (inactive)
same,GI50,SN12C,> 100 µM (inactive)
same,GI50,OVCAR-3,> 100 µM (inactive)
same,GI50,NCI-H522,48.3 µM (inactive)
same,GI50,HCC 2998,75.7 µM (inactive)
same,GI50,UACC-62,83.2 µM (inactive)
same,GI50,COLO 205,> 100 µM (inactive)
same,GI50,HT-29,> 100 µM (inactive)
same,GI50,SNB-19,> 100 µM (inactive)
same,GI50,Malme-3M,53.2 µM (inactive)
same,GI50,K562,35.2 µM (inactive)
same,GI50,DMS-114,37.5 µM (inactive)
same,GI50,ACHN,> 100 µM (inactive)
same,GI50,RPMI-8226,46.5 µM (inactive)
same,GI50,SW-620,52.4 µM (inactive)
same,GI50,SK-MEL-28,> 100 µM (inactive)
same,GI50,SK-MEL-5,61.9 µM (inactive)
same,GI50,NCI-H460,> 100 µM (inactive)
same,GI50,HOP-62,82.4 µM (inactive)
same,GI50,XF498,> 100 µM (inactive)
same,GI50,HCT-116,62.8 µM (inactive)
same,GI50,CAKI-1,82.4 µM (inactive)
same,GI50,EKVX,> 100 µM (inactive)
same,GI50,SK-MEL-2,53.7 µM (inactive)
same,GI50,HCT-15,73.6 µM
same,GI50,UO-31,32.1 µM (inactive)
same,GI50,SR,26.2 µM (inactive)
same,GI50,OVCAR-4,75.7 µM (inactive)
same,GI50,LXFL 529,> 100 µM (inactive)
same,GI50,SF-295,> 100 µM (inactive)
same,GI50,HL-60,34.8 µM (inactive)
same,GI50,LOX IMVI,50.5 µM (inactive)
same,GI50,SNB-75,31.7 µM (inactive)
same,GI50,SK-OV-3,71.4 µM (inactive)
same,GI50,SF-268,> 100 µM (inactive)
same,GI50,DMS-273,43.3 µM (inactive)
